This passage reports IC50 results from patent US10689378B2, “Triazolopyridine compounds and uses thereof” (Novartis AG, priority 2016, dated 2020).

In test [1] the target is wild type PRC2 (wtPRC2) complex (Homo sapiens, UniProt O75530). Nature of the test: EED LC-MS assay (SAH production by PRC2). The settings on record: read-out: (b) IC50, EED LC-MS Qualified. In kind it is biochemical. Put shortly:
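LC-MS/MS readout of SAH (d4-SAH standard) after TFA quench gives PRC2 activity, normalized to controls and fitted to dose-response for IC50. Reaction: 12 nM EZH2/SUZ12/EED/Rbap48/AEBP complex, 1 μM SAM, 1.5 μM H3[21-44] peptide, 120 min rt, 20 min compound preincubation.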

Test [2] deals with H3K27 methylation in G401 cell. Nature of the test: ELISA (H3K27 methylation) assay in G401 cells. The class given is cell-based, human. The settings on record: Homo sapiens, G-401, read-out: (c) IC50, ELISA Qualified. An outline of the steps:
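IC50 from dose-response fit of percent inhibition relative to DMSO, using H3K27me3/me2 ELISA signal (ECL) normalized to histone H3. Histones HCl-extracted after 48 h compound exposure of G401 cells at up to 20 μM, 8- or 12-point 3-fold series.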

The target in another test is T1, EED (1-441)-His protein (Homo sapiens, UniProt O75530).
T1 construct: 30 nM EED (1-441)-His protein
T1 sequence (O75530 whole entry): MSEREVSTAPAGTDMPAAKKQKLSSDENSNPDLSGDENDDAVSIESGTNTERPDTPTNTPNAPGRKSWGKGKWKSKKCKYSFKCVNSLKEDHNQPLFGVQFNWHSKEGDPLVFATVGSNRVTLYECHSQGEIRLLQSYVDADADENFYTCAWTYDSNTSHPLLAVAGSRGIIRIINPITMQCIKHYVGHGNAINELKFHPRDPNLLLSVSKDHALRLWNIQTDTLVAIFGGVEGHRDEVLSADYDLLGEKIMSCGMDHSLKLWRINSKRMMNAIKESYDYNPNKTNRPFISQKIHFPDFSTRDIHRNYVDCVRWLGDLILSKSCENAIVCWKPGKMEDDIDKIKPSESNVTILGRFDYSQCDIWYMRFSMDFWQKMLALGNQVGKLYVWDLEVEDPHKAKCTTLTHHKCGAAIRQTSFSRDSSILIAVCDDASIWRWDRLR
Nature of the test: EED-H3K27Me3 peptide competition binding assay by AlphaScreen. Particulars: read-out: (a) IC50, EED Alphascreen binding Qualified. An outline of the steps: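 Serially diluted compound (12 points, 3-fold) incubated 20 min with 30 nM EED(1-441)-His and 15 nM biotin-H3K27Me3(19-33) peptide in 25 mM HEPES pH 8, 0.02% Tween-20, 0.5% BSA. Ni-chelate acceptor/streptavidin donor beads (10 μg/mL each) added, 1 h rt dark; 615 nm emission normalized to controls, dose-response fit for IC50.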
For orientation: In Alpha technology, singlet oxygen from a donor bead excites a nearby acceptor bead.

pIC50: −log10 of the molar value.

Sequence of wild type PRC2 (wtPRC2) complex (O75530 whole entry): as above
Sequence of wild type PRC2 (wtPRC2) complex (Q15910 whole entry partner): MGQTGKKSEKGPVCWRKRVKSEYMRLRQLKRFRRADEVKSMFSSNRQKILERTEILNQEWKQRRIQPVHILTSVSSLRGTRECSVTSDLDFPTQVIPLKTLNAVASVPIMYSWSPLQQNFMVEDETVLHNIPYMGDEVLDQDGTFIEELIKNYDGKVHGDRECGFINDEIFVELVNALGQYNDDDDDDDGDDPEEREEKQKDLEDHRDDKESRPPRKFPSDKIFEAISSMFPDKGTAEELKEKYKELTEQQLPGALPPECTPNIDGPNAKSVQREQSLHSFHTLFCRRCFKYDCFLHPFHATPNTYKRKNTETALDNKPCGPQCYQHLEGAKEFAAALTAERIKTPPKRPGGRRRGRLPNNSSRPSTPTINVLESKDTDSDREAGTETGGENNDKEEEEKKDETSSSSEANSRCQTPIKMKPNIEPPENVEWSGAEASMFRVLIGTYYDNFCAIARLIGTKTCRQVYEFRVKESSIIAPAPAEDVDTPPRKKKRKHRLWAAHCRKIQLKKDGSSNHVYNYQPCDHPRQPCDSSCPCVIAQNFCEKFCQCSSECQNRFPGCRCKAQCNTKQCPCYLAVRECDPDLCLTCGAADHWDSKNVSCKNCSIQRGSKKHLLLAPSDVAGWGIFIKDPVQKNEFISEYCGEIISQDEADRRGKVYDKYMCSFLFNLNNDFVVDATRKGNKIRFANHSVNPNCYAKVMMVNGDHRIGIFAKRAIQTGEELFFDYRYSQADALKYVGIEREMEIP
Sequence of wild type PRC2 (wtPRC2) complex (Q15022 whole entry partner): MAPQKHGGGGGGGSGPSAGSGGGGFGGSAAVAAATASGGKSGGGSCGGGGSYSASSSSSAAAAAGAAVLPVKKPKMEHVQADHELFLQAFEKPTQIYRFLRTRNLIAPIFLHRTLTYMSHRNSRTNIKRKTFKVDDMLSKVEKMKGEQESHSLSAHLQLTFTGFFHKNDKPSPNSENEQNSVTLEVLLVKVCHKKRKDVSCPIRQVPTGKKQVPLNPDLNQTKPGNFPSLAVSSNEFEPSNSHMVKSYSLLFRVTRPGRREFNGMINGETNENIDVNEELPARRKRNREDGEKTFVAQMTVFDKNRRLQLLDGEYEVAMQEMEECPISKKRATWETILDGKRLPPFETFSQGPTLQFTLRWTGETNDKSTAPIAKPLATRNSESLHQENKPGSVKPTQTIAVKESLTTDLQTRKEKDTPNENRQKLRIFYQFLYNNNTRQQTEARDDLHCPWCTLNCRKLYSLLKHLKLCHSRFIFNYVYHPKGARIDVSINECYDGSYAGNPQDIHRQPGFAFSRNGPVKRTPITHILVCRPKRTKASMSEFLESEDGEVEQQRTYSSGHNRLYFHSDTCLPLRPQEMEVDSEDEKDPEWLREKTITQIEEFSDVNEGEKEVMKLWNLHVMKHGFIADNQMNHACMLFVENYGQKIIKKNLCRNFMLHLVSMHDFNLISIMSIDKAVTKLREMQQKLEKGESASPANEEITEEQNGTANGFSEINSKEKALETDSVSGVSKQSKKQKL
Sequence of wild type PRC2 (wtPRC2) complex (Q09028 whole entry partner): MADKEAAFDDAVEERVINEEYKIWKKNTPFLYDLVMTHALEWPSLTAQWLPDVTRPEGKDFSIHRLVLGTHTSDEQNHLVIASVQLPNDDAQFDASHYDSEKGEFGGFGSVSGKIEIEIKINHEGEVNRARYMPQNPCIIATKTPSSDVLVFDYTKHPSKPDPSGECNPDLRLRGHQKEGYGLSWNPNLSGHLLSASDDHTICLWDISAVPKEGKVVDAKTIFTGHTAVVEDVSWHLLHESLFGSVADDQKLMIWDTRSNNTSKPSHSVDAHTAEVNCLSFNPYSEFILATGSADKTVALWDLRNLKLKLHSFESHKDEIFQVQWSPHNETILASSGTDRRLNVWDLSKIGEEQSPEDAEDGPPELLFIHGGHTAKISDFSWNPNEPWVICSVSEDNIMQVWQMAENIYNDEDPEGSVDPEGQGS
Sequence of wild type PRC2 (wtPRC2) complex (Q6ZN18 whole entry partner): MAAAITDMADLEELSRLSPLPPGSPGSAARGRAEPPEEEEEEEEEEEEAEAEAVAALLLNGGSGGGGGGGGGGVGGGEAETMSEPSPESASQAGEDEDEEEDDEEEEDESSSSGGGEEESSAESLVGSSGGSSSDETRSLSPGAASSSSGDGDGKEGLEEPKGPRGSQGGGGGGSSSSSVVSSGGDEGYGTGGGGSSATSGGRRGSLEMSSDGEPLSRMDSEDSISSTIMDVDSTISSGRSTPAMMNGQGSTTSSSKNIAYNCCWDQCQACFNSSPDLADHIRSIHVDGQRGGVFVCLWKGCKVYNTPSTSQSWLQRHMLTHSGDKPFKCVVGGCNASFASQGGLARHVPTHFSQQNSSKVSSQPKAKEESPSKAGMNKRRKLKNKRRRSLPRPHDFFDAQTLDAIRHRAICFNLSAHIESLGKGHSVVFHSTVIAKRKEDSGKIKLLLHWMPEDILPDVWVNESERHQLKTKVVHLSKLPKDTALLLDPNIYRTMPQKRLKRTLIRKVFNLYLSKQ

Turning to `COc1ccccc1CNc1ccc(-c2ccnc(C)c2)c2nncn12` [Example 91, N-(2-methoxybenzyl)-8-(2-methylpyridin-4-yl)-[1,2,4] triazolo[4,3-a]pyridin-5-amine], the pIC50 in test [1] was 6.56; in test [2], 7.22; at EED (1-441)-His protein, 7.43.

In the case of `COc1ccccc1CNc1ccc(-c2cccc(CCN(C)C)c2)c2nncn12` [Example 94, 8-(3-(2-(dimethylamino)ethyl)phenyl)-N-(2-methoxybenzyl)-[1,2,4]triazolo[4,3-a] pyridin-5-amine], the figures for the pIC50 (in test [1]; in test [2]; at EED (1-441)-His protein) were 7.21, 7.39 and 7.58, respectively.

For the molecule `COc1cccc(F)c1CNc1ccc(-c2ccc(S(N)(=O)=O)cc2)c2nncn12` [Example 100, 4-(5-((2-fluoro-6-methoxybenzyl)amino)-[1,2,4]triazolo[4,3-a]pyridin-8-yl)benzenesulfonamide], the pIC50 was 6.86 in test [1], 7.40 in test [2] and 7.91 at EED (1-441)-His protein.

As for `COc1ccccc1CNc1ccc(-c2ccc(S(=O)(=O)NCCO)cc2)c2nncn12` [Example 101, N-(2-hydroxyethyl)-4-(5-((2-methoxybenzyl)amino)-[1,2,4]triazolo[4,3-a]pyridin-8-yl)benzenesulfonamide], the negative logarithm of the IC50 (pIC50) was 5.59 in test [1], 6.99 in test [2] and 7.30 at EED (1-441)-His protein.

As to `COc1ccccc1CNc1ccc(-c2ccc([S+](C)[O-])cc2)c2nncn12` (stereo not drawn) [Example 102, N-(2-methoxybenzyl)-8-(4-(methylsulfinyl)phenyl)-[1,2,4]triazolo[4,3-a]pyridin-5-amine], the results for the pIC50 (in test [1]; in test [2]; on EED (1-441)-His protein) were 5.84, 7.16 and 7.21, respectively.

As for `COc1cccc(F)c1CNc1ccc(-c2ccc(NS(C)(=O)=O)cc2)c2nncn12` [Example 105, N-(4-(5-((2-fluoro-6-methoxybenzyl)amino)-[1,2,4]triazolo[4,3-a]pyridin-8-yl)phenyl)methane sulfonamide], the pIC50 in test [1] is 6.55; in test [2] it was 7.36; at EED (1-441)-His protein, 7.67.

Turning to `COc1cccc(F)c1CNc1ccc(-c2ccc(NS(C)(=O)=O)c(F)c2)c2nncn12` [Example 106, N-(2-fluoro-4-(5-((2-fluoro-6-methoxybenzyl)amino)-[1,2,4]triazolo[4,3-a]pyridin-8-yl)phenyl) methanesulfonamide], the figures for the negative logarithm of the IC50 (pIC50) (in test [1]; in test [2]; on EED (1-441)-His protein) were 6.34, 7.28 and 7.33, respectively.

For the molecule `COc1cccc(F)c1CNc1ccc(-c2ccc(C(=O)N3CCCC3)cc2)c2nncn12` [Example 107, (4-(5-((2-fluoro-6-methoxy benzyl)amino)-[1,2,4]triazolo[4,3-a]pyridin-8-yl)phenyl)(pyrrolidin-1-yl) methanone], the results for the negative-log IC50 (pIC50) (in test [1]; in test [2]; on EED (1-441)-His protein) were 6.97, 7.90 and 7.67, respectively.

With `COc1cccc(F)c1CNc1ccc(-c2cnc(N3CCN(C(C)C)CC3)c(C(F)(F)F)c2)c2nncn12` [Example 108, N-(2-fluoro-6-methoxybenzyl)-8-(6-(4-isopropylpiperazin-1-yl)-5-(trifluoromethyl)pyridin-3-yl)-[1,2,4]triazolo[4,3-a] pyridin-5-amine], the pIC50 was 6.46 in test [1], 6.72 in test [2] and 7.15 at EED (1-441)-His protein.

With `COc1cccc(F)c1CNc1ccc(-c2cnc(N3CCN(C(C)C)CC3)c(Cl)c2)c2nncn12` [Example 109, 8-(5-chloro-6-(4-isopropylpiperazin-1-yl)pyridin-3-yl)-N-(2-fluoro-6-methoxybenzyl)-[1,2,4] triazolo[4,3-a]pyridin-5-amine], the pIC50 in test [1] was 6.52; in test [2] it was 6.99; at EED (1-441)-His protein it was 7.57.

Take `COc1ccccc1CNc1ccc(-c2ccc(C)nc2)c2nncn12` [Example 111, N-(2-methoxybenzyl)-8-(6-methylpyridin-3-yl)-[1,2,4] triazolo[4,3-a]pyridin-5-amine]: the pIC50 in test [1] is 6.39; in test [2], 7.25; at EED (1-441)-His protein, 7.12.

Consider `COc1cccc(F)c1CNc1ccc(-c2ccc(S(C)(=O)=O)nc2)c2nncn12` [Example 112, N-(2-fluoro-6-methoxybenzyl)-8-(6-(methylsulfonyl)pyridin-3-yl)-[1,2,4]triazolo[4,3-a] pyridin-5-amine], for which the pIC50 was 6.59 in test [1], 8.31 in test [2] and 8.01 on EED (1-441)-His protein.

Turning to `COc1cccc(F)c1CNc1ccc(-c2ccncc2)c2nncn12` [Example 113, N-(2-fluoro-6-methoxybenzyl)-8-(pyridin-4-yl)-[1,2,4]triazolo[4,3-a]pyridin-5-amine], the results for the pIC50 (in test [1]; in test [2]; at EED (1-441)-His protein) were 6.93, 7.56 and 7.41, respectively.

With `COc1cccc(F)c1CNc1ccc(-c2cccnc2)c2nncn12` [Example 114, N-(2-fluoro-6-methoxybenzyl)-8-(pyridin-3-yl)-[1,2,4]triazolo[4,3-a]pyridin-5-amine], the figures for the pIC50 (in test [1]; in test [2]; on EED (1-441)-His protein) were 7.04, 8.02 and 7.80, respectively.

Regarding `COc1ccccc1CNc1ccc(-c2ccc(CCN(C)C)cc2)c2nncn12` [Example 123, 8-(4-(2-(dimethylamino)ethyl)phenyl)-N-(2-methoxybenzyl)-[1,2,4]triazolo[4,3-a] pyridin-5-amine], the figures for the pIC50 (in test [1]; in test [2]; at EED (1-441)-His protein) were 6.43, 7.00 and 7.38, respectively.

On to `COc1cccc(F)c1CNc1ccc(-c2c(C)nn(C)c2C)c2nncn12` [Example 124, N-(2-fluoro-6-methoxybenzyl)-8-(1,3,5-trimethyl-1H-pyrazol-4-yl)-[1,2,4] triazolo[4,3-a]pyridin-5-amine], for which the pIC50 is 7.19 in test [1], 7.61 in test [2] and 7.28 at EED (1-441)-His protein.

Regarding `COc1cccc(F)c1CNc1ccc(-c2ccc(S(=O)(=O)NCCO)cc2)c2nncn12` [Example 126, 4-(5-((2-fluoro-6-methoxybenzyl)amino)-[1,2,4]triazolo[4,3-a]pyridin-8-yl)-N-(2-hydroxyethyl) benzenesulfonamide], the pIC50 is 5.76 in test [1], 8.30 in test [2] and 7.94 on EED (1-441)-His protein.

`COc1ccccc1CNc1ccc(-c2ccc(S(=O)(=O)C(C)C)nc2)c2nncn12` [Example 127, 8-(6-(isopropylsulfonyl)pyridin-3-yl)-N-(2-methoxybenzyl)-[1,2,4]triazolo[4,3-a] pyridin-5-amine]: the pIC50 in test [1] was 6.24; in test [2], 7.85; at EED (1-441)-His protein, 7.66.

In the case of `COc1ccccc1CNc1ccc(-c2ccc(S(=O)(=O)C3CCN(C)CC3)cc2)c2nncn12` [Example 128, N-(2-methoxybenzyl)-8-(4-((1-methylpiperidin-4-yl)sulfonyl)phenyl)-[1,2,4] triazolo[4,3-a]pyridin-5-amine], the pIC50 in test [1] was 6.65; in test [2] it was 7.73; on EED (1-441)-His protein, 7.48.

For the molecule `COc1cccc(F)c1CNc1ccc(-c2ccc(N3CCN(C(C)C)CC3)nc2)c2nncn12` [Example 130, N-(2-fluoro-6-methoxybenzyl)-8-(6-(4-isopropylpiperazin-1-yl)pyridin-3-yl)-[1,2,4]triazolo[4,3-a]pyridin-5-amine], the pIC50 in test [1] was 7.20; in test [2], 7.09; at EED (1-441)-His protein it was 7.51.

Regarding `COc1cccc(F)c1CNc1ccc(-c2cnc(N3CCN(C(C)C)CC3)nc2)c2nncn12` [Example 131, N-(2-fluoro-6-methoxybenzyl)-8-(2-(4-isopropylpiperazin-1-yl)pyrimidin-5-yl)-[1,2,4]triazolo[4,3-a] pyridin-5-amine], the pIC50 was 6.74 in test [1], 7.09 in test [2] and 7.49 on EED (1-441)-His protein.

Consider `COc1cccc(F)c1CNc1ccc(-c2ccc(S(=O)(=O)C3CCNCC3)cc2)c2nncn12` [Example 132, N-(2-fluoro-6-methoxybenzyl)-8-(4-(piperidin-4-ylsulfonyl)phenyl)-[1,2,4] triazolo[4,3-a]pyridin-5-amine], for which the values for the pIC50 (in test [1]; in test [2]; at EED (1-441)-His protein) were 7.19, 7.66 and 7.16, respectively.

For the molecule `COc1cccc(F)c1CNc1ccc(-c2ccc(S(=O)(=O)C3CCN(C)CC3)cc2)c2nncn12` [Example 133, N-(2-fluoro-6-methoxybenzyl)-8-(4-((1-methylpiperidin-4-yl)sulfonyl)phenyl)-[1,2,4]triazolo[4,3-a] pyridin-5-amine], the pIC50 in test [1] is 7.18; in test [2], 8.28; on EED (1-441)-His protein it was 8.30.

Take `COc1cccc(F)c1CNc1ccc(-c2c(C)noc2C)c2nncn12` [Example 139, 8-(3,5-dimethylisoxazol-4-yl)-N-(2-fluoro-6-methoxybenzyl)-[1,2,4]triazolo[4,3-a] pyridin-5-amine]: the values for the pIC50 (in test [1]; in test [2]; on EED (1-441)-His protein) were 7.33, 7.93 and 7.59, respectively.

In the case of `COc1cccc(F)c1CNc1ccc(-c2cncc(S(C)(=O)=O)c2)c2nncn12` [Example 140, N-(2-fluoro-6-methoxybenzyl)-8-(5-(methylsulfonyl)pyridin-3-yl)-[1,2,4]triazolo[4,3-a] pyridin-5-amine], the figures for the pIC50 (in test [1]; in test [2]; at EED (1-441)-His protein) were 6.57, 7.73 and 7.76, respectively.

For orientation: pIC50 means the negative decadic logarithm of the IC50, by convention in mol/L.
